Usually pKd stands for −log10 of the Kd, conventionally taken in molar units. As a reminder, the pIC50 is −log10 of the IC50, conventionally taken in molar units. Read a low pIC50 as a large IC50.

Test [1] deals with Human Cbl-b (residues 40-426) (Homo sapiens (Human), UniProt Q13191). Description: Cbl-b SPR assay. Format: binding. The settings on record: for Fold of selectivity: C-cbl SPR Kd vs Cbl-b SPR Kd; for pKd: SPR, 20° C. The method, then: (§1) Affinity of binding to Cbl-b and c-Cbl for compounds described herein was assessed by surface plasmon resonance (SPR) according to the following protocol.
Human Cbl-b (residues 40-426), sequence (Q13191 40-426): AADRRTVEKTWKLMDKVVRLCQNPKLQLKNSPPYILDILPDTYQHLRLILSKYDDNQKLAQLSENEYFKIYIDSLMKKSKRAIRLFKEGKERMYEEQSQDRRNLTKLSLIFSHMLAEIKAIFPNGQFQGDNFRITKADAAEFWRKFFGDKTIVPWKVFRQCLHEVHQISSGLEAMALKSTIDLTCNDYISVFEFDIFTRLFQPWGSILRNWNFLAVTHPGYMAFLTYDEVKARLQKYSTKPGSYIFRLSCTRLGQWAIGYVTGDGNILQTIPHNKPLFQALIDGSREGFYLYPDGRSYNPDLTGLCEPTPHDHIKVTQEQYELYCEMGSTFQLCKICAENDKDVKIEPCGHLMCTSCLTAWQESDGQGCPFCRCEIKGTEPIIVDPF
(§2) A surface capture range of 1300-1500 RU of protein was used for both isoforms.
(§3) For SPR measurements, 6 concentrations with 2 fold serial dilution were measured with blanks flanking each series for double referencing. […] SPR sensorgrams were recorded in multi-cycle kinetics format, with a contact time of 60 seconds and a flow rate of 40 μl/min, the dissociation time was varied between 120-1200 seconds aiming for 4-5 half-lives of the measured interaction.
(§4) Kinetic and affinity parameters were extracted from the multicycle kinetics data fitting to a 1:1 binding model using the Biacore™ Incyte evaluation software (Cytiva).
(§5) Chaser assay utilize a single cycle kinetics SPR experiment with a contact time of 120 seconds, a flow rate of 50 μl/min and a dissociation time of 450 seconds. Single cycle kinetics titration utilized an initial blank injection and 5 concentrations with 2 fold serial dilution with a maximum concentration of 500 nM, blanked to a preceding 6 point blank single cycle kinetics injection for double referencing.
(§6) The kd is measured independently by determining the percentage unoccupied compound binding site over time by measuring the binding of a chaser compound measured by SPR.
(§7) Chaser binding was measured by a multicycle kinetics SPR experiment using a contact time of 20 seconds, a flow rate of 30 μl/min, and a dissociation time of 120 seconds. […] The % compound bound at a given time was determined by comparison to a single injection of chaser preceding the single cycle kinetics titration defined below. % Compound Bound=(1−(RUT/RUT0))*100
(§8) The % compound bound is plotted against time in seconds and fit to a single exponential, where the exponent represents the kd of the compound-protein complex. The single cycle kinetics experiment of the compound is then fit with a fixed kd determined using the chaser.
On the technique in general: In SPR one partner is held on a chip, and binding of the other changes the refractive index at the surface.

Another test addresses c-Cbl (residues 47-435) (Homo sapiens (Human), UniProt P22681). Briefly: c-Cbl SPR assay. Format: binding. The following applies: 20° C. The method, then:
as §1, §2, §3, §4, §5, §6, §7, §8

The target of another test is Cbl-b (Homo sapiens (Human), UniProt Q13191). Description: Cbl-b LCK Ub TR-FRET assay (Cbl-b Lck HTRF). Format: biochemical. The following applies: for pIC50: Cbl-b LCK Ub TR-FRET; for fold-selectivity (Cbl-b over C-cbl) / (fold-selectivity) Cbl-b and C-Cbl Selectivity: ratio C-cbl Lck HTRF IC50 / Cbl-b Lck HTRF IC50. The essentials:
(§9)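 After the ubiquitination reaction, detection mixture was added and plates incubated 20 min at room temperature before reading. IC50 values were calculated with wells lacking LCK as the low control and DMSO as the high control.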

Another test addresses c-Cbl (Homo sapiens (Human), UniProt P22681). Description: C-Cbl LCK Ub TR-FRET assay (C-cbl Lck HTRF). The format is biochemical. Put shortly:
as §9
(In general: TR-FRET usually uses a lanthanide donor and a delayed reading to cut background.)

pIC50, pKd: −log10 of the molar value.

Cbl-b, sequence (Q13191 40-426): as above
c-Cbl, sequence (P22681 47-435): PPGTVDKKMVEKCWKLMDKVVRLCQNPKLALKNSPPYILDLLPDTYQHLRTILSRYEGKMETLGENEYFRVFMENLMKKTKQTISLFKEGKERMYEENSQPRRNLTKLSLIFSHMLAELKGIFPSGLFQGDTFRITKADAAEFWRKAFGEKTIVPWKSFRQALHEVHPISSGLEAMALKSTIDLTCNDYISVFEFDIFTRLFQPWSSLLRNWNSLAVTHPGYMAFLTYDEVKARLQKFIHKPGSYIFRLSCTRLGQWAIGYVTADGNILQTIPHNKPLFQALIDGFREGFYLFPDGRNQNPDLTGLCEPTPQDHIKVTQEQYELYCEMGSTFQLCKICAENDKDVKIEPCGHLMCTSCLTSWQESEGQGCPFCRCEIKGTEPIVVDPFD
c-Cbl (residues 47-435), sequence (P22681 47-435): as above

For `Cn1cnnc1C1(c2cccc(N3Cc4c(cc(CNC5(C)CCC5)cc4C(F)(F)F)C3=O)c2)CC2(CCC2)C1`, in test [1], the Fold of selectivity turned out to be 9.5× and the pKd is 8.68. The compound also had a negative-log Kd (pKd) at c-Cbl (residues 47-435) of 7.70.
Taken in the same sequence, the figures for `CC(C)[C@H]1CN(C)CCN1Cc1cc2c(c(C(F)(F)F)c1)CN(c1cccc(C3(c4nncn4C)CC4(COC4)C3)c1)C2=O` were 14×, 8.24 and 7.11.
Taken in the same sequence, the figures for “2-(3-(2-(4-methyl-4H-1,2,4-triazol-3-yl)-6-oxospiro[3.3]heptan-2-yl)phenyl)-6-(((1-methylcyclobutyl)amino)methyl)-4-(trifluoromethyl)isoindolin-1-one [Compound 92]” were 6.4×, 8.47 and 7.62.
Taken in the same sequence, the figures for “2-(3-(3,3-dimethyl-1-(4-methyl-4H-1,2,4-triazol-3-yl)cyclobutyl)phenyl)-6-(((1-methylcyclobutyl)amino)methyl)-4-(trifluoromethyl)-isoindolin-1-one [Compound 39]” were 6.6×, 8.64 and 7.80.
In test [1], “2-(3-(6-hydroxy-2-(4-methyl-4H-1,2,4-triazol-3-yl)spiro[3.3]heptan-2-yl)phenyl)-6-(((1-methylcyclobutyl)amino)methyl)-4-(trifluoromethyl)isoindolin-1-one [Compound 93]” returned a Fold of selectivity of 7.5×. Moreover, the pKd in test [1] was 9.00; on c-Cbl (residues 47-435) it was 8.12.
Taken in the same sequence, the figures for “2-(3-((1r,3r)-3-fluoro-1-(4-methyl-4H-1,2,4-triazol-3-yl)cyclobutyl)phenyl)-6-(((1-methylcyclobutyl)amino)methyl)-4-(trifluoromethyl)isoindolin-1-one [Compound 36]” were 2.8×, 7.23 and 6.77.
In the case of `Cn1cnnc1C(c1cccc(N2Cc3c(cc(CNC4(C)CCC4)cc3C(F)(F)F)C2=O)c1)C1CC(F)(F)C1` (racemic) [Compound 145, 2-(3-((3,3-difluorocyclobutyl)(4-methyl-4H-1,2,4-triazol-3-yl)methyl)phenyl)-6-(((1-methylcyclobutyl)amino)methyl)-4-(trifluoromethyl)isoindolin-1-one], on Cbl-b, the pIC50 was 7.12 and the “fold-selectivity (Cbl-b over C-cbl)” value is reported as 2.4x. The compound further showed a pIC50 against c-Cbl of 6.74. In test [1], this compound showed a Fold of selectivity of 14× and a pKd of 7.72. This compound gave a pKd on c-Cbl (residues 47-435) of 6.54.
For the compound `Cn1cnnc1[C@@](O)(c1cccc(N2Cc3c(cc(CNC4(C)CCC4)cc3C(F)(F)F)C2=O)c1)C1CCC1` (single isomer, unassigned) [Compound 2], the pIC50 on Cbl-b was 7.80; on c-Cbl, 7.62. Also, the “fold-selectivity (Cbl-b over C-cbl)” value on Cbl-b was “(1.5x)”. This compound had a Fold of selectivity in test [1] of 13×. Also, the negative-log Kd (pKd) was 8.64 in test [1] and 7.54 on c-Cbl (residues 47-435).
Consider `CO[C@H]1C[C@H]([C@@H](c2cccc(N3Cc4c(cc(CN5CCN(C)C[C@@H]5C(C)C)cc4C(F)(F)F)C3=O)c2)c2nncn2C)C1` (single isomer, unassigned) [Compound 12], for which, on Cbl-b, the negative-log IC50 (pIC50) was 7.92 and the “fold-selectivity (Cbl-b over C-cbl)” value was “(1.5x)”. On c-Cbl, this compound showed a pIC50 of 7.74. In test [1], the Fold of selectivity is on record as 5× and the pKd is 8.60. Also, the pKd at c-Cbl (residues 47-435) was 7.92.
Take `CO[C@H]1C[C@@H]([C@@H](c2cccc(N3Cc4c(cc(CN5CCN(C)C[C@@H]5C(C)C)cc4C(F)(F)F)C3=O)c2)c2nncn2C)C1` (single isomer, unassigned) [Compound 14]: on Cbl-b, the negative-log IC50 (pIC50) is 6.20 and the “fold-selectivity (Cbl-b over C-cbl)” value is on record as “(1.6x)”. This compound showed a pIC50 against c-Cbl of 6.00. Besides, in test [1], the Fold of selectivity is 8.8× and the pKd was 6.20. At c-Cbl (residues 47-435), this compound showed a pKd of 5.26.
On to `CO[C@H]1C[C@H]([C@@H](c2cccc(N3Cc4c(cc(CN5CCN(C)C[C@@H]5C(C)C)cc4C(F)(F)F)C3=O)c2)c2nncn2C)C1` (single isomer, unassigned) [Compound 15], for which, on Cbl-b, the pIC50 is 5.72 and the “fold-selectivity (Cbl-b over C-cbl)” value is reported as “(1.6x)”. The same compound had a pIC50 against c-Cbl of 5.31. In test [1], this compound gave a Fold of selectivity of 14× and a pKd of 6.11. Also, the pKd on c-Cbl (residues 47-435) is 4.96.
As to `CC(C)[C@H]1CN(C)CCN1Cc1cc2c(c(C(F)(F)F)c1)CN(c1cccc([C@]3(c4nncn4C)C[C@H](C#N)C3)c1)C2=O` (single isomer, unassigned) [Compound 63], the pIC50 at Cbl-b is 8.10; at c-Cbl it was 7.85. Besides, at Cbl-b, the “fold-selectivity (Cbl-b over C-cbl)” value was “(1.8x)”. Moreover, the Fold of selectivity in test [1] is recorded as 5.1×. Besides, the pKd in test [1] is 8.43; on c-Cbl (residues 47-435), 7.72.
`CC(C)[C@H]1CN(C)CCN1Cc1cc2c(c(C(F)(F)F)c1)CN(c1cccc([C@]3(c4nncn4C)C[C@@H](C#N)C3)c1)C2=O` (single isomer, unassigned) [Compound 64]: the pIC50 was 7.62 at Cbl-b and 7.15 on c-Cbl. Further, on Cbl-b, the “fold-selectivity (Cbl-b over C-cbl)” value is “(2.9x)”. In addition, the Fold of selectivity in test [1] is given as 5.1×. Besides, the pKd in test [1] was 7.80; at c-Cbl (residues 47-435) it was 7.09.
Take `C[C@H]1CCCN(Cc2cc3c(c(C(F)(F)F)c2)CN(c2cccc(C4(c5nncn5C)CC5(COC5)C4)c2)C3=O)C1` (single isomer, unassigned) [Compound 66]: the negative logarithm of the IC50 (pIC50) is 7.60 at Cbl-b and 7.20 against c-Cbl. Besides, the “fold-selectivity (Cbl-b over C-cbl)” value on Cbl-b is given as “(2.5x)”. Further, the Fold of selectivity in test [1] was found to be 5.0×. The figures for the pKd (in test [1]; at c-Cbl (residues 47-435)) were 7.80 and 7.09, respectively.
Regarding `CC1=C[C@@](c2cc(NC3CCC3)nc(N3Cc4c(cc(CN5CCN(C)C[C@@H]5C(C)C)cc4C(F)(F)F)C3=O)c2)(c2nncn2C)C1` (single isomer, unassigned) [Compound 71], on Cbl-b, the pIC50 is 7.85 and the “fold-selectivity (Cbl-b over C-cbl)” value is “(1.2x)”. The compound further had a pIC50 against c-Cbl of 7.77. Moreover, in test [1], the Fold of selectivity is recorded as 9.1× and the pKd was 8.43. At c-Cbl (residues 47-435), this compound gave a negative-log Kd (pKd) of 7.47.
As to `Cn1cnnc1[C@H](c1cccc(N2Cc3c(cc(CNC4(C)CCC4)cc3C(F)F)C2=O)c1)C1CC(F)C1` (stereo partly drawn) [Compound 460, 4-(difluoromethyl)-2-(3-((S)-((1r,3S)-3-fluorocyclobutyl)(4-methyl-4H-1,2,4-triazol-3-yl)methyl)phenyl)-6-(((1-methylcyclobutyl)amino)methyl)isoindolin-1-one], the pIC50 is 6.21 at Cbl-b (Example 121) and 5.41 against c-Cbl. For the same compound, the “(fold-selectivity) Cbl-b and C-Cbl Selectivity” value on Cbl-b was 6.4x.
Taken in the same sequence, the figures for `CO[C@H]1C[C@](c2cccc(N3Cc4c(cc(CNC5(C)COC5)cc4C(F)(F)F)C3=O)c2)(c2nncn2C)C1` [Compound 479, 2-(3-((1r,3r)-3-methoxy-1-(4-methyl-4H-1,2,4-triazol-3-yl)cyclobutyl)phenyl)-6-(((3-methyloxetan-3-yl)amino)methyl)-4-(trifluoromethyl)isoindolin-1-one] were 7.54, 6.60 and 8.6x.

Values taken from US12187709B2 (Genentech, Inc., priority 2021, dated 2025).
